From patent publication US11717553B2, “Combined plant extract for getting rid of mites and acne and preparation method and use thereof” (Nanjing Institute for Comprehensive Utilization of Wild …, priority 2020, dated 2023)
Like-named read-outs stand apart in the source and are kept apart here.

Experiments:
human follicle mites [1] = assay: In vitro experiment of mite elimination by combined plant extracts and single plant extracts (Example 4); details: 4 h
From the text: (§1) Mites for experiments: follicle mites were obtained with a transparent tape sticking overnight. Specifically, subjects were required to clean their face thoroughly and stick a transparent tape which is 6 cm long and 1.5 cm wide to their foreheads, cheeks, noses, chins or other sites before going to bed. The tape was peeled off the next day, stuck on a glass slide and observed under a microscope.
Preparation of samples to be tested: a total of 7 samples of combined plant extracts and single plant extracts prepared according to Examples 1-3 and Comparative Examples 1-4, were sequentially denoted as samples no. 1-7 to be tested, and diluted with deionized water to a 25% concentration for later use.
1.2.1 Test groups: the test solutions were denoted as no. 1-7 sequentially, a 2% metronidazole solution was used as the positive control group, and liquid paraffin was used as the blank control group. 10 follicle mites were included in each group. […]
(§2) 1.2.2 Observation method: a micropipette was used to draw 200 μL of an agent solution and drop it on a slide. […] The tapes where follicle mites were detected were stuck on the slides to allow sufficient contact of the solution and the mites. […]
(§3) 1.2.3 Determination of death: the mites whose limbs or feet were immobile under a 400× microscope for 1 min were initially determined to be dead, and those who still immobile after 30 min were diagnosed as dead. […]

human follicle mites [2] = details: 4 h
From the text: as §1
Preparation of samples to be tested: The combined plant extract prepared according to Example 1 was diluted with deionized water to obtain final concentrations of 100%, 50%, 25%, 12.5%, 6.25%, and 3.125% for later use.
1.2.1 Test groups: the combined plant extract to be tested was divided into 6 concentration gradient groups, a 2% metronidazole solution was used as the positive control group, and liquid paraffin was used as the blank control group. 10 follicle mites were included in each group. […]
as §2, §3

Cc1ncc([N+](=O)[O-])n1CCO [Metronidazole, metronidazole]
Corrected mortality rate (%) ± SE (human follicle mites [1]): 56.73 ± 4.07% | Corrected mortality rate (%) ± SE (human follicle mites [2]): 54.66 ± 4.38%
